What is called half-life is the time in which the quantity being followed falls by half. Usually IC50 stands for the concentration needed to halve the response being measured.

Series [1] in a line: Half life in mice plasma. The format is ADME, organism-based. Particulars: mouse.
Series [2] concerns the target RAC-alpha serine/threonine-protein kinase (Homo sapiens, UniProt P31749). The series can be described thus: Inhibition of Protein kinase B alpha.
In series [3] the target is cAMP-dependent protein kinase A (Bos taurus, UniProt P00515+P00517+P05131+P31322). The series can be described thus: Inhibition of bovine protein kinase A (PKA). The format is protein-complex assay.

Each structure is given as a SMILES string. Some results are limits rather than exact numbers.

Chain of RAC-alpha serine/threonine-protein kinase (P31749 whole entry): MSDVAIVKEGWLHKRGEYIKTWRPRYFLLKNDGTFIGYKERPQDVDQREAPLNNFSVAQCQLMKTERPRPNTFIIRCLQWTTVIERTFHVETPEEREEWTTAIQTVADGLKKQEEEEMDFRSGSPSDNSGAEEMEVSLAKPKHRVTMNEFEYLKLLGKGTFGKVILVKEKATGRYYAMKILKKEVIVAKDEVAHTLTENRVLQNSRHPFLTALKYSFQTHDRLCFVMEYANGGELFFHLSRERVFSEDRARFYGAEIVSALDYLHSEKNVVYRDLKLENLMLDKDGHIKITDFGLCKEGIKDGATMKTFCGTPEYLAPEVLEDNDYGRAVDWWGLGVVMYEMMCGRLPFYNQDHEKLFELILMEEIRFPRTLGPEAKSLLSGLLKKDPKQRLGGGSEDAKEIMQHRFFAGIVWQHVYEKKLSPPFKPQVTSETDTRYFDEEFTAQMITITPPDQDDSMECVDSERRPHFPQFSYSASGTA

Consider `COc1ccc(O)c(C(=O)c2ccc(C(=O)N[C@@H]3CCCNCC3NC(=O)c3ccncc3)cc2)c1F.Cl.Cl` (stereo not given in full), for which the half-life in series [1] was 69 h.

For `COc1ccc(O)c(C(=O)c2ccc(CN[C@@H]3CCCNC[C@H]3NC(=O)c3ccncc3)cc2)c1F.Cl`, the half-life in series [1] was 161 h. The IC50 in series [2] was 3000 nM; in series [3], 800 nM.

In turn, `COc1ccc(O)c(C(=O)c2ccc(CO[C@@H]3CCCNCC3NC(=O)c3ccncc3)cc2)c1F.Cl.Cl` (stereo not given in full) had a half-life in series [1] of 29 h. The compound further showed an IC50 in series [2] of 355 nM.

Compound `COc1ccc(O)c(C(=O)c2ccc(/C=C/[C@@H]3CCCNC[C@H]3NC(=O)c3ccncc3)cc2)c1F` yielded an IC50 in series [2] of 160 nM.

For `COc1ccc(O)c(C(=O)c2ccc(NC[C@@H]3CCCNCC3NC(=O)c3ccncc3)cc2)c1F` (stereo not given in full), the IC50 amounted to 25000 nM in series [2] and 45000 nM in series [3].

Compound `COc1ccc(O)c(C(=O)c2ccc(C(=O)O[C@@H]3CCCNCC3NC(=O)c3ccncc3)cc2)c1F.Cl.Cl` (stereo not given in full) gave a half-life in series [1] of less than 0.0167 h.
